Experimental data reported in ChEMBL document CHEMBL5096178, “Synthesis and Biological Evaluation of Natural-Product-Inspired, Aminoalkyl-Substituted 1-Benzopyrans as Novel Antiplasmodial Agents” (J Med Chem, 2021).
Values after ≈ are worked out from the molar mass of the structure shown. Values belong to the compound of their own block, whether it stands above or below them.

Columns and labels:
Plasmodium falciparum [1] = experiment: Antimalarial activity against chloroquine-sensitive Plasmodium falciparum D6 assessed as parasite growth inhibition by [3H]hypoxanthine growth inhibition assay; format: functional, organism-based
Plasmodium falciparum [2] = experiment: Antimalarial activity against drug-sensitive Plasmodium falciparum 3D7 assessed as parasite growth inhibition incubated for 48 hrs by [3H]hypoxanthine incorporation assay; format: functional, organism-based
Plasmodium falciparum [3] = experiment: Inhibition of Plasmodium falciparum DHODH using DCIP as substrate at 10 uM relative to control
Plasmodium falciparum [4] = experiment: Antiprotozoal activity against erythrocytic stage Plasmodium falciparum NF54 assessed as parasite growth inhibition incubated for 48 hrs by [3H]hypoxanthine incorporation assay; format: functional, organism-based
[5] = test system: Trypanosoma brucei rhodesiense; experiment: Antiprotozoal activity against Trypanosoma brucei rhodesiense STIB 900 bloodstream trypomastigote assessed as parasite growth inhibition incubated for 70 hrs by resazurin dye based assay; format: functional, organism-based; conditions: STIB 900, 70 h
Trypanosoma cruzi = experiment: Antiprotozoal activity against Trypanosoma cruzi Tulahuen C4 intracellular amastigote infected in rat L6 cells assessed as parasite growth inhibition incubated for 96 hrs in presence of CPRG/Nonidet by photometry; format: functional, organism-based; conditions: Tulahuen C4, L6, 96 h
Leishmania donovani = experiment: Antiprotozoal activity against Leishmania donovani MHOM/ET/67/L82 axenic amastigote assessed as parasite growth inhibition incubated for resazurin dye based fluorometry; format: functional, organism-based
[6] = Cytotoxicity against rat L6 cells assessed as cell growth inhibition incubated for 70 hrs by Alamar Blue staining based […]; format: toxicity
[7] = Selectivity index, ratio of IC50 for rat L6 cells to IC50 for erythrocytic stage Plasmodium falciparum NF54; format: toxicity; conditions: read-out: Ratio IC50
[8] = Selectivity index, ratio of IC50 for rat L6 cells to IC50 for Trypanosoma brucei rhodesiense STIB 900 bloodstream trypomastigote; format: toxicity; conditions: read-out: Ratio IC50
[9] = Selectivity index, ratio of IC50 for rat L6 cells to IC50 for Trypanosoma cruzi Tulahuen C4 intracellular amastigote infected in rat L6 cells; format: toxicity, cell-based; conditions: read-out: Ratio IC50
[10] = Selectivity index, ratio of IC50 for rat L6 cells to IC50 for Leishmania donovani MHOM/ET/67/L82 axenic amastigote; format: toxicity; conditions: read-out: Ratio IC50
Plasmodium falciparum [11] = experiment: Inhibition of Plasmodium falciparum DHODH using DCIP as substrate at 50 uM relative to control
[12] = Displacement of [3H]-(+)-pentazocine from Sigma1 receptor derived from pig brain assessed as inhibition constant measured after 120 mins by scintillation counter analysis; format: tissue-based, Sus scrofa
Plasmodium berghei [13] = experiment: Antiplasmodial activity against GFP-transfected Plasmodium berghei ANKA infected in NMRI mouse assessed as parasitemia reduction at 30 mg/kg, ip administered for 4 consecutive days measured after 24 hrs by FACS analysis relative to control; format: functional; set-up: scale not given: the % may be the effect or the level left
Plasmodium berghei [14] = experiment: Antiplasmodial activity against GFP-transfected Plasmodium berghei ANKA infected in NMRI mouse assessed as parasitemia reduction at 60 mg/kg, po administered for 4 consecutive days measured after 24 hrs by FACS analysis relative to control; format: functional; set-up: scale not given: the % may be the effect or the level left
[15] = Drug metabolism in mouse liver microsomes assessed as 2,2-dimethyl-6-((3-phenylpropylamino)methyl)chroman-7-ol metabolite formation incubated for 90 mins in presence of NADPH/UDPGA by LC-MS analysis; format: ADME, Microsome; conditions: 1.5 h
[16] = Drug metabolism in mouse liver microsomes assessed as glucuronic acid conjugated metabolite formation incubated for 90 mins in presence of NADPH/UDPGA by LC-MS analysis; format: ADME, Microsome; conditions: 1.5 h
[17] = Drug metabolism in mouse liver microsomes assessed as (2R,3R,4S,5S,6R)-2-(2,2-dimethyl-6-((3-phenylpropylamino)methyl)chroman-7-ylperoxy)-6-(hydroxymethyl)tetrahydro-2H-pyran-3,4,5-triol metabolite formation incubated for 90 mins in presence of NADPH/UDPGA by LC-MS analysis; format: ADME, Microsome; conditions: 1.5 h
[18] = Drug concentration in plasma of NMRI mouse infected with GFP-transfected Plasmodium berghei ANKA administered intraperitoneally for 4 consecutive days measured after 1 hr by LC-MS analysis; format: ADME; conditions: ip, 97 h
[19] = Drug concentration in plasma of NMRI mouse infected with GFP-transfected Plasmodium berghei ANKA administered orally for 4 consecutive days measured after 1 hr by LC-MS analysis; format: ADME; conditions: po, 97 h
[20] = Drug metabolism in NMRI mouse infected with GFP-transfected Plasmodium berghei ANKA assessed as 2,2-dimethyl-6-((3-phenylpropylamino)methyl)chroman-7-ol metabolite formation administered intraperitoneally for 4 consecutive days measured after 1 hr by LC-MS analysis; format: ADME; conditions: in vivo, ip, 97 h
[21] = Drug metabolism in NMRI mouse infected with GFP-transfected Plasmodium berghei ANKA assessed as glucuronic acid conjugated metabolite formation administered intraperitoneally for 4 consecutive days measured after 1 hr by LC-MS analysis; format: ADME; conditions: in vivo, ip, 97 h
[22] = (§1) Drug metabolism in NMRI mouse infected with GFP-transfected Plasmodium berghei ANKA assessed as (2R,3R,4S,5S,6R)-2-(2,2-dimethyl-6-((3-phenylpropylamino)methyl)chroman-7-ylperoxy)-6-(hydroxymethyl)tetrahydro-2H-pyran-3,4,5-triol metabolite formation administered intraperitoneally for 4 consecutive days measured after 1 hr by LC-MS analysis; format: ADME; conditions: in vivo, ip, 97 h
[23] = Drug metabolism in NMRI mouse infected with GFP-transfected Plasmodium berghei ANKA assessed as 2,2-dimethyl-6-((3-phenylpropylamino)methyl)chroman-7-ol metabolite formation administered orally for 4 consecutive days measured after 1 hr by LC-MS analysis; format: ADME; conditions: in vivo, po, 97 h
[24] = Drug metabolism in NMRI mouse infected with GFP-transfected Plasmodium berghei ANKA assessed as glucuronic acid conjugated metabolite formation administered orally for 4 consecutive days measured after 1 hr by LC-MS analysis; format: ADME; conditions: in vivo, po, 97 h
[25] = as §1, with “orally” for “intraperitoneally”; format: ADME; conditions: in vivo, po, 97 h
Plasmodium falciparum [26] = experiment: Inhibition of Plasmodium falciparum DHODH assessed as residual activity using DCIP as substrate at 10 uM relative to control
Plasmodium falciparum [27] = experiment: Inhibition of Plasmodium falciparum DHODH assessed as residual activity using DCIP as substrate at 50 uM relative to control

Compound: CCCCNCc1cc(C(C)(C)C)cc(-c2cnc(C(F)(F)F)c(F)c2)c1O
IC50 (Plasmodium falciparum [1]): 9 nM

Compound: CC(C)(C)c1cc(O)c(CN)c(C(C)(C)C)c1
IC50 (Plasmodium falciparum [2]): 30 µg/mL (≈ 127 µM)

inhibition (Plasmodium falciparum [3]): 3% | IC50 [5]: 410 nM | IC50 (Trypanosoma cruzi): 15 µM | inhibition (Plasmodium falciparum [11]): 1% | Ki [12]: 74 nM | Drug metabolism [15]: Metabolite_Detected | Drug metabolism [16]: Metabolite_Detected | Drug metabolism [17]: Metabolite_Detected | Drug uptake [18]: Active | Drug uptake [19]: Active | Drug metabolism [20]: Metabolite_Detected | Drug metabolism [21]: Metabolite_Detected | Drug metabolism [22]: Metabolite_Detected | Drug metabolism [23]: Metabolite_Detected | Drug metabolism [24]: Metabolite_Detected | Drug metabolism [25]: Metabolite_Detected | Activity (Plasmodium falciparum [26]): 106% | Activity (Plasmodium falciparum [27]): 90%
Compound: CC1(C)CCc2cc(CNCCCc3ccccc3)c(O)cc2O1
IC50 (Plasmodium falciparum [4]): 38 nM | IC50 (Leishmania donovani): 134 µM | IC50 at 70 h [6]: 6.5 µM | selectivity ratio [7]: 171 | selectivity ratio [8]: 14 | selectivity ratio [9]: 0.4 | selectivity ratio [10]: 0.05 | Activity (Plasmodium berghei [13]): 66% | Activity (Plasmodium berghei [14]): 74%
